Laboratory results published in patent US20220152024A1, “COMBINATIONS USEFUL IN A METHOD FOR TREATING SARCOMA” (PTC THERAPEUTICS, INC., priority 2019, published 2022).
Entries after “also recorded” stand apart in the source; their conditions may differ. Read-outs that look alike come from different tables or passages of the source. Marks after values point to notes of the source that are not given here.

Legend:
[1] = tested on: SK-UT-1 leiomyosarcoma tumor cells; type: in vivo
Experimental: (§1) A negative coefficient indicates greater inhibition in the combination group than expected based on the activity of the monotherapies. The more negative the coefficient, the greater the activity of the combination.
This study utilized SK-UT-1 leiomyosarcoma tumor cells implanted into the flank of athymic nude mice.
To compare tumor growth, the area under the curve comparing tumor volume vs day for each individual mouse was calculated and then averaged for each group.
(§2) Interaction coefficients were determined using the AUCs of the Day 0 to Day 25 tumor volume vs day curves. To take into account the data after Day 25, interaction coefficients were also calculated for the median time to reach 1000 mm3. A negative interaction coefficient indicates synergy.

[2] = Predicted effective human dose from mouse exposure and measured human exposure (FIGS. 6A-D); type: in vivo; details: monotherapy, orally twice per week
Source text: FIGS. 6A-D summarize the pharmacokinetics of Compound 1 administered as a monotherapy in humans (as measured by AUCLast and Cmax) two times per week in the AST trial, wherein the dotted line in each figure indicates free drug concentration.
(§3) In contrast to use of allometric conversion factors, FIGS. 6A-D summarize the pharmacokinetics of Compound 1 administration in humans, showing that a conversion factor for Compound 1 based on free drug in humans compared to free drug in mice can be derived to estimate the effective target AUC and Cmax, thus accounting for the differences in free drug between these species.
(§4) As shown by the dashed line, this predicts that the estimated dose in a human patient of about 2.0 mg/kg (biw) or higher of Compound 1 would be effective.
As shown by the dashed line, this predicts that the estimated dose in a human patient of about 1.4 mg/kg (biw) or higher of Compound 1 would be effective.
As shown by the dashed line, this predicts that the estimated dose in a human patient of about 2.3 mg/kg (biw) or higher of Compound 1 would be effective.
As shown by the dashed line, this predicts that the estimated dose in a human patient of about 1.8 mg/kg (biw) or higher of Compound 1 would be effective.

[3] = Phase 1a clinical trial NCT02404480, safety, PK and response; type: in vivo, human; details: human, in vivo, 2.6 mg/kg, NCT02404480 PK profile, FIG. 6
Experimental: (§5) FIG. 5 summarizes the duration of Compound 1 treatment alone in an […] (AST) Phase 1a clinical trial (NCT02404480) of 31 evaluable patients to determine safety and pharmacokinetics. The initial human dose of 0.65 mg/kg was based on a rat model MTD of 40 mg/kg, with subsequent higher human dose ranging at 1.3 mg/kg, 2.6 mg/kg, 5.2 mg/kg, 7 mg/kg, and 10 mg/kg. The Standard 3+3 trial design, with 3 patients per cohort, allowed dose escalation for each cohort absent a dose-limiting toxicity (DLT), enabling the next cohort to be treated at the next higher dose. In the event any one patient in the cohort experienced a DLT at a particular dose, the next cohort would be treated at the same dose. A full pharmacokinetic review of each patient was taken on Day 1 and Day 29, with a partial review taken on Day 15.
(§6) NCT02404480: Phase 1 Study, open-label, first-in-human, evaluated safety and pharmacokinetic (PK) profile for use of Compound 1 in patients with advanced solid tumor (AST) cancers, determined the RP2D (recommended phase II clinical trial dose) according to escalating dose levels.
(§7) Compound 1 was administered as a […] in NCT02404480, a Phase 1a clinical trial designed to evaluate safety and PK profile for use of Compound 1 in patients with advanced solid tumor (AST) cancers.

[4] = tested on: advanced solid tumor (AST) cancers; assay: as above; type: in vivo, human; details: 31 evaluable patients; Compound 1 alone
Experimental: as §5, §6, §7

[5] = Rat model MTD; details: in vivo
[6] = Exposure (AUC, Cmax) of Compound 1 in the mouse, free and total drug; details: in vivo, po
Experimental: as §3, §4

[7] = tested on: SK-LMS-1 human leiomyosarcoma tumors; type: in vivo
Source text: (§8) Leiomyosarcoma accounts for 5-10% of soft tissue sarcomas. Typically, leiomyosarcomas have a complex karyotype and are associated with p53 mutations (Yang J, Du X, Chen K, Ylipaa A, Lazar A J, Trent J, Lev D, Pollock R, Hao X, Hunt K, Zhang W. Genetic aberrations in soft tissue leiomyosarcoma. Cancer Lett. 2009 Mar. 8; 275(1):1-8). The cell line, SK-LMS-1 has a complex karyotype and a mutated p53 gene. Chemotherapy with doxorubicin-based drug regimens such as a combination of doxorubicin and ifosfamide is the standard of care. However, these regimens usually result in cardiotoxicity, rapid development of resistance, and no significant survival advantage. In a previous study utilizing the SK-LMS-1 model, Compound 1 (Cpd 1) was tested at a constant dose (12.5 mg/kg biw) in combination with varying doses/regimens of doxorubicin and gemcitabine. […] Here, SK-LMS-1 cells were passaged for a more extended time in vivo relative to the prior study generating a more aggressive tumor model. This study tested the efficacy of Cpd 1 alone and in combination with the chemotherapeutic agents Doxil and DTIC in the treatment of mice bearing SK-LMS-1 human leiomyosarcoma tumors.
as §1
as §2, with “Tumors were ˜222 mm3 in volume when dosing was initiated. […] Interaction” for “Interaction”, “28” for “25”, “28,” for “25,”, “were” for “were also”, “mm^3.” for “mm3.”
as §1

[8] = tested on: SK-LMS-1 model; assay: Previous study in the SK-LMS-1 model (doxorubicin, gemcitabine combinations); type: in vivo; details: Cpd 1 12.5 mg/kg biw with varying doses/regimens of doxorubicin and gemcitabine
Source text: as §8

[9] = docetaxel 15 mg/kg IP QW6, alone or with Cpd 1 12.5 mg/kg
[10] = docetaxel 15 mg/kg IP qw6, alone or with Cpd 1 12.5 mg/kg biw6
[11] = DTIC 4 mg/kg IP tiw, alone or with Cpd 1 12.5 mg/kg PO biw
[12] = DTIC 21 mg/kg IP qd5, alone or with Cpd 1 12.5 mg/kg PO biw

With CC(=O)O[C@@]12CO[C@@H]1C[C@H](O)[C@@]1(C)C(=O)[C@H](O)C3=C(C)[C@@H](OC(=O)[C@H](O)[C@@H](NC(=O)OC(C)(C)C)c4ccccc4)C[C@@](O)([C@@H](OC(=O)c4ccccc4)[C@H]21)C3(C)C [docetaxel] the “effect on tumor growth” value ([1]; docetaxel 5 mg/kg IP BIW5.5, alone or with Cpd 1) was “no efficacy as a monotherapy”, the “percent reduction in tumor volume at Day 28 (%)” value (“percent reduction … (%)” below) ([1]; docetaxel 5 mg/kg IP biw5.5 (11 doses), alone or with Cpd 1 12.5 mg/kg biw6) was 2.27% and the “median time for tumor volume for individual mice to reach 1000 mm^3” value ([1]; docetaxel 5 mg/kg IP biw5.5, alone or with Cpd 1 12.5 mg/kg biw6) was 18.9 days. For the same compound, the “effect on tumor growth” value ([1]; docetaxel 15 mg/kg IP QW6, alone or with Cpd 1) was “tumor growth was delayed; also recorded: more effective than Cpd 1”, the “inhibition vs vehicle at Day 25” value [1, 9] was 78% and the “mean tumor size at Day 25” value [1, 9] was 1486 mm^3. For the same compound, the “median time for tumor volume for individual mice to reach 1000 mm^3 (Days)” value [1, 10] was 50.1* Days and the “percent reduction … (%)” value [1, 10] was 77.8* %.

With Cc1nc2ccc(F)cc2n1-c1nc(N)c(F)c(Nc2ccc(C(F)(F)F)cc2)n1 [Compound 1, 5-fluoro-2-(6-fluoro-2-methyl-1H-benzo[d]imidazol-1-yl)-N^4-[4-(trifluoromethyl)phenyl]pyrimidine-4,6-diamine] the “minimum effective amount for a 70 kg human subject, for Cmax” value ([2]; targeting free drug at 12.5 mg/kg in the mouse) was “about 124 mg”, the “minimum effective amount for a 70 kg human subject, for Cmax” value ([2]; targeting total drug at 12.5 mg/kg in the mouse) was “about 226 mg” and the AUC(0-t) ([3]; read-out: target AUCLast) was 13100 ng·h/mL. The Cmax ([3]; read-out: target Cmax) was 679 ng/mL, the “patients with a mixed/partial response” value [4] was 2/31 and the “patients with stable disease” value [4] was 5/31. The MTD [5] was 40 mg/kg, the “inhibition vs vehicle at Day 25” value ([1]; Cpd 1 12.5 mg/kg BIW6 alone) was 35% and the “delay of the median time for tumor growth to reach 1000 mm^3” value ([1]; Cpd 1 12.5 mg/kg BIW6 alone, vs vehicle) was about 1.7 fold. For the same compound, the “median time for tumor volume for individual mice to reach 1000 mm^3” value ([1]; Cpd 1 12.5 mg/kg PO biw6 alone) was 31.2 days, the “percent reduction … (%)” value ([1]; Cpd 1 12.5 mg/kg PO biw6 alone) was 35.4* % and the “mean tumor volume on Day 42” value ([1]; Cpd 1 12.5 mg/kg alone, all mice euthanized) was 1508 mm^3. For the same compound, the “mean tumor volume on Day 25” value ([1]; Cpd 1 12.5 mg/kg alone, ~163 mm^3 at start of dosing) was 983 mm^3, the AUC ([6]; Dose in Mouse 10 mg/kg) was 21000 ng·h/mL and the Cmax ([6]; Dose in Mouse 10 mg/kg) was 1100 ng/mL. The AUC ([6]; Dose in Mouse 12.5 mg/kg) was 26200 ng·h/mL, the Cmax ([6]; Dose in Mouse 12.5 mg/kg) was 1380 ng/mL and the “median time for tumor volume for individual mice to reach 1000 mm^3” value ([7]; Cpd 1 12.5 mg/kg PO biw alone) was 23 days. For the same compound, the “percent reduction … (%)” value ([7]; Cpd 1 12.5 mg/kg PO biw alone) was 21%, the “mean tumor volume on Day 32” value ([7]; Cpd 1 12.5 mg/kg biw alone, all mice euthanized) was 1607 mm^3 and the “mean tumor volume on Day 28” value ([7]; Cpd 1 12.5 mg/kg biw alone, ~222 mm3 at start of dosing) was 1388 mm3.

With CN(C)/N=N/c1[nH]cnc1C(N)=O [DTIC, dacarbazine, reference compound] the “median time for tumor volume for individual mice to reach 1000 mm^3” value [7, 11] was 19 days, the “percent reduction … (%)” value [7, 11] was 0% and the “effect on tumor growth” value ([7]; DTIC 4 mg/kg IP tiw, alone or with Cpd 1 12.5 mg/kg biw) was “no activity”. For the same compound, the “median time for tumor volume for individual mice to reach 1000 mm^3” value [7, 12] was 35 days and the “percent reduction … (%)” value [7, 12] was 74* %.

With COc1cccc2c1C(=O)c1c(O)c3c(c(O)c1C2=O)C[C@@](O)(C(=O)CO)C[C@@H]3O[C@H]1C[C@H](N)[C@H](O)[C@H](C)O1 [Doxorubicin, doxorubicin] the “efficacy” value [8] was “not active as a monotherapy or in combination with Cpd 1”.
